Consider 13 compounds from patent US9920058B2, “Molecules with potent DHFR binding affinity and antibacterial activity” (Georgia Tech Research Corporation, priority 2013, dated 2018).

The target of assay [1] is dihydrofolate reductase (DHFR) from Escherichia coli (Escherichia coli, UniProt P0ABQ4). Kind of assay: biochemical. The format is binding. Particulars: for ΔTm: unit given in Table 4. Here is the method: The thermal shift assay was performed in a control reaction mix containing 100 mM HEPES pH 7.3, 150 mM NaCl, 5× Sypro-orange (an extrinsic fluorophore reporter from Invitrogen), 10 micromolar of the protein dihydrofolate reductase in 20 μl reaction mix. The test reaction contained 1 mM of the said compound apart from all the other constituents as mentioned above. Protein melting curves were obtained from samples aliquoted in 96-well plates using a RealPlex quantitative PCR from Eppendorf. […] A heating ramp of 1 degree Celsius/min was used from 25 degree Celsius to 74 degree Celsius and one data point was acquired for each degree increment. Appropriate dye controls and protein controls were incorporated. All the experiments were done with minimum two replicates and the mean value of the replicate Y was considered for further analysis.
Protein melting curves were obtained from samples aliquoted in 96-well plates using a RealPlex quantitative PCR instrument from Eppendorf (Eppendorf, N.Y., USA), with Sypro orange dye from Invitrogen as the fluorescent probe. A uniform final concentration of 5× (supplied as a 5000× stock solution) was used in all experiments. […] A heating ramp of 1° C./min from 25° C. to 74° C. was used, and one data point acquired for each degree increment. For standardization, different buffers and pH were checked. Thereafter, 100 mM HEPES pH 7.3 and 150 mM NaCl were used in all unfolding experiments. The volume of each reaction was 20 μl, and appropriate dye and protein controls were included. All experiments were done with a minimum of two replicates, with the mean value considered for further analysis. […] An additional control to rule out drug-dye interaction was carried out with all the constituents kept constant except for the protein of interest. The protein/protein-drug curves were reported after subtracting the respective dye alone/drug-dye curves.
Each melting curve was assigned a quality score (Q), the ratio of the melting-associated increase in fluorescence (ΔFmelt) to the total fluorescence range (ΔFtotal). […] Though an arbitrary Q value cutoff was not applied to judge curve quality, the curves were manually curated with Q values reported.
Subsequent to standardization, the validity of the top 1% of […]^comb's predictions on the test set of eight diverse proteins was examined. To be conservative, we focused only on those protein/ligand pairs showing single sigmoidal thermal transition curves. The fit to Boltzmann's equation (Eq. 1) was employed to estimate the melting temperature from the observed intensity, I.
[formula] Imin and Imax are the minimum and maximum intensities; a denotes the slope of the curve at the transition midpoint temperate, Tm. To estimate thermodynamic parameters, both van't Hoff and Gibbs-Helmholtz analyses were done.
[formula] KL(Tm) is the ligand association constant and [L] is the free ligand concentration at Tm([LTm]˜[L]total, when [L]total>>the total concentration of protein. KD is the inverse of KL(Tm).

Assay [2] has as its system colon carcinoma cells HCT-116. Kind of assay: Cytotoxicity assay on HCT-116. The format is cell-based. Particulars: for IC50: Homo sapiens, HCT-116.
The subject of assay [3] is multi-drug resistant E. coli SMS-3-4 (ATCC BAA-1743) (MDREC). Kind of assay: Antimicrobial growth inhibition (MIC), MDREC. Particulars: Escherichia coli.
The subject of assay [4] is methicillin-resistant S. aureus (ATCC 33591) (MRSA). The assay can be described thus: Antimicrobial growth inhibition (MIC), MRSA.
In assay [5] the test system is amphotericin-resistant Candida albicans (ARCA). Kind of assay: Antifungal growth inhibition (MIC), ARCA. It is filed as cell-based. As to conditions: for MIC: read-out: ARCA (MIC).
Assay [6] relates to vancomycin-resistant E. faecium (ATCC700221) (VREF). Kind of assay: Antimicrobial growth inhibition (MIC), VREF.
For another assay, the system named is E. coli DH5α. The assay can be described thus: Antimicrobial growth inhibition (MIC), E. coli DH5α. As to conditions: Escherichia coli.
Assay [7] relates to several cancer cell lines including melanoma, prostrate, colon, and breast. As to conditions: cited from earlier work.
[8] abbreviates: Table 5, computed from the thermal shifts obtained, read-out: KD (Approx).
[9] abbreviates: Table 5, unit from Table 6, ND: non determinable/no significant inhibition.
Setting [10] is: Table 6, ND: No significant inhibition, read-out: HCT-116 (IC-50), inhibitory concentration for 50% growth inhibition.
Setting [11] is: Candida albicans, Table 5, unit from Table 1, ND: non determinable/no significant inhibition.
[12] abbreviates: Enterococcus faecium, ATCC700221, read-out: VREF (MIC), minimum inhibitory concentration required for 90% clearance.
Where [13] appears, read: Table 6, ND: No significant inhibition.

The structures appear in SMILES notation. pKd: −log10 of the molar value. In brackets after ≈: the same amount, converted by molar mass. Read-outs that look alike come from different tables or passages of the source.

Consider `CCOc1ccc(NC(=O)c2cc3ccccc3cc2O)cc1` [NSC50690], for which the pKd in assay [1] (setting [8]) was 3.33. Also, the ΔTm – broadly, the shift of the melting midpoint relative to a reference – in assay [1] (Table 5) worked out at 0.23 °C.
Consider `O=C(Nc1ccc(Oc2ccc(NC(=O)Nc3ccc([N+](=O)[O-])cc3)cc2)cc1)Nc1ccc([N+](=O)[O-])cc1` [NSC80735], for which the pKd is 5.77 in assay [1] (setting [8]) and 5.77 in assay [1] (text b322, read-out: KD / affinity). The ΔTm in assay [1] (Table 5) amounted to 18.16 °C. For the same compound, the “HCT-116 (IC-50)” value in assay [2] (setting [9]) stood at 10.9 µg/mL.
As to `C#CCC(Cc1cnc2nc(N)nc(N)c2n1)c1ccc(C(=O)N[C@@H](CCC(=O)O)C(=O)O)cc1` (stereo partly drawn) [NSC754230, pralatrexate, reference compound], in assay [1] (setting [8]), the pKd was 6.30. In assay [2] (setting [10]), the IC50 was less than 0.031 µg/mL.
In the case of `CC(C)=C(c1ccc(Cl)cc1)c1c(N)ncnc1N` [NSC157522], the pKd in assay [1] (setting [8]) was 4.71. Besides, the ΔTm in assay [1] (Table 5) worked out at 10.13 °C.
For `Nc1ccc(Cn2ccc3c4c(N)nc(N)nc4ccc32)cc1` [NSC309401, 7-[(4-aminophenyl)methyl]-7H-pyrrolo[3,2-f]quinazoline-1,3-diamine], the MIC in assay [3] (ATCCBAA1743, read-out: MDREC (MIC), minimum inhibitory concentration required for 90% clearance) came to 125 µg/mL (≈ 411 µM); in assay [4] (Staphylococcus aureus, ATCC33591|MRSA, read-out: MRSA (MIC), minimum inhibitory concentration required for 90% clearance), 31.2 µg/mL (≈ 103 µM); in assay [4] (Staphylococcus aureus, read-out: MRSA (MIC)), 31.2 µg/mL (≈ 103 µM); in assay [5] (setting [11]) it was 125 µg/mL (≈ 411 µM); in assay [6] (Enterococcus faecium, ATCC700221, read-out: VREF (MIC)), 31.2 µg/mL (≈ 103 µM); in assay [6] (setting [12]) it was 31.2 µg/mL (≈ 103 µM). In addition, the MIC in the assay on E. coli DH5α (read-out: DH5α (MIC)) stood at 7.81 µg/mL (≈ 25.7 µM); with E. coli DH5α (read-out: DH5α (MIC), minimum inhibitory concentration required for 90% clearance) it was 7.81 µg/mL (≈ 25.7 µM). Further, the MIC90 was found to be 125 µg/mL (≈ 411 µM) in assay [3] (ATCCBAA1743, read-out: MIC (MIC-90, minimum inhibitory concentration for 90% growth inhibition)); 31.2 µg/mL (≈ 103 µM) in assay [4] (Staphylococcus aureus, ATCC33591|MRSA, read-out: MIC (MIC-90, minimum inhibitory concentration for 90% growth inhibition)); 125 µg/mL (≈ 411 µM) in assay [5] (Candida albicans, read-out: MIC (MIC-90, minimum inhibitory concentration for 90% growth inhibition), Table 1, ARCA); 31.2 µg/mL (≈ 103 µM) in assay [6] (Enterococcus faecium, ATCC700221, read-out: MIC (MIC-90, minimum inhibitory concentration for 90% growth inhibition)); 7.81 µg/mL (≈ 25.7 µM) with E. coli DH5α (read-out: MIC (MIC-90, minimum inhibitory concentration for 90% growth inhibition)). The IC50 in assay [2] (Table 5, unit from Table 6, ND: non determinable/no significant inhibition, read-out: HCT-116 (IC-50)) was 0.13 µg/mL (≈ 0.427 µM); in assay [2] (setting [10]), 0.13 µg/mL (≈ 0.427 µM). In addition, the “activity against cancer cell lines (potency not revealed)” value in assay [7] was “has activity”.
`CCc1nc(N)nc(N)c1-c1ccc(N(C)Cc2ccccc2)c([N+](=O)[O-])c1` [NSC382035, methylbezoprim, reference compound]: the “MRSA (MIC)” value in assay [4] (setting [9]) was determined as 31.25 µg/mL. Moreover, in assay [4] (setting [13]), the “MRSA (MIC), minimum inhibitory concentration required for 90% clearance” value came to 31.25 µg/mL. Further, the “ARCA (MIC)” value in assay [5] (Table 5, unit from Table 1, ND: non determinable/no significant inhibition) stood at 250 µg/mL. The “VREF (MIC)” value in assay [6] (setting [9]) worked out at 31.25 µg/mL. In addition, the “VREF (MIC), minimum inhibitory concentration required for 90% clearance” value in assay [6] (setting [13]) came out at 31.25 µg/mL. Besides, the “HCT-116 (IC-50)” value in assay [2] (setting [9]) worked out at 0.182 µg/mL. Further, in assay [2] (setting [13]), the “HCT-116 (IC-50), inhibitory concentration for 50% growth inhibition” value worked out at 0.182 µg/mL.
`O=C(Nc1ccc(C(=O)O)c(O)c1)c1ccccc1` [NSC159686]: the pKd in assay [1] (setting [8]) was 4.90. For the same compound, the ΔTm in assay [1] (Table 5) worked out at 11.52 °C.
Taken in the same sequence, the figures for `COc1cc(NCc2ccccc2O)c2ncccc2c1` [NSC130801] were 4.12 and 5.84 °C.
Taken in the same sequence, the figures for `C1=Cc2ccccc2Nc2ccccc21` [NSC123458] were 5.25 and 14.17 °C.
Taken in the same sequence, the figures for `N/C(CC(=O)Nc1cc(C(F)(F)F)ccc1Cl)=N\O` [NSC379536] were 4.54 and 8.86 °C.
Turning to `CN(Cc1cnc2nc(N)nc(N)c2n1)c1ccc(C(=O)N[C@@H](CCC(=O)O)C(=O)O)cc1` [NSC740, methotrexate], the MIC in assay [5] (Candida albicans) and in assay [6] (setting [12]) was 500 µg/mL (≈ 1100 µM) in each case. In assay [2] (setting [10]), the IC50 turned out to be 0.048 µg/mL (≈ 0.106 µM).
`Nc1ccc(NC(=O)c2ccc(C(=O)Nc3ccc(N)cc3)cc2)cc1` [NSC55152]: the pKd in assay [1] (setting [8]) is 4.13. Also, the ΔTm in assay [1] (Table 5) amounted to 5.89 °C.
As to `Nc1ccc(-c2nc3nc(N)nc(N)c3nc2-c2ccc(N)cc2)cc1` [NSC61642, 6,7-bis(4-aminophenyl) pteridine-2,4-diamine, reference compound], the MIC in assay [5] (setting [11]) was found to be 250 µg/mL (≈ 726 µM). The pKd in assay [1] (setting [8]) is 5.69.
